Source: patent US20170152245A1 (National Taiwan University, priority 2015, published 2017)

Experiments:
platelet suspension = assay: U46619-stimulated platelet protein tyrosine phosphorylation; assay type: cell-based; details: 2.5 μM; U46619 1 μM
Description: FIG. 19 Effects of nstpbp5185 on U46619-stimulated protein tyrosine phosphorylation in platelet suspension. Platelets were incubated with nstpbp5185 (2.5 μM) or solvent control for 3 min and then stimulated with U46619 (1 μM) for the times indicated (second, s). Then platelets were lysed in SDS buffer and the lysates separated by SDS-PAGE (7.5%-15% acrylamide gradient) under reducing conditions. After electrophoresis, the proteins were transferred to PVDF membranes, and were incubated with several antiphosphotyrosine mAb before detection by using a peroxidase-linked second Ab and detected by chemiluminescence. Data are representative of three separate experiments.
Given the thromboxane receptor-blocking effect of nstpbp5185, the effect of nstpbp5185 on U46619-stimulated signal transduction in platelets was investigated. Stimulation of thromboxane receptors results in phosphorylation of PLCβ2 and activates downstream signaling pathway PKCα, PI3K, Syk, extracellular signal-regulated kinase (ERK) and focal adhesion kinase. The effect of nstpbp5185 on levels of protein tyrosine phosphorylation was examined in platelet cell lysates in different time course. […] In the presence of nstpbp5185 (2.5 μM), the overall pattern of protein tyrosine phosphorylation of signaling molecules during platelet activation was suppressed, including phospholipase Cβ2 (PLCβ2), FAK, PKCα, PI3-kinase, Syk and ERK.

washed human platelets = assay: LDH assay in washed human platelets; assay type: cell-based; details: 10 μM
Text: To begin with, potency of aggregation inhibition and estimated the IC50 of Ctkf6f2 on platelet aggregation caused by different agonists was investigated. […] In addition, the effect of Ctkf6f2 in platelet-rich plasma was also investigated. […] Furthermore, concentration-dependent inhibition curve in platelet suspension and platelet-rich plasma could be observed as well from FIG. 3. Moreover, LDH assay in washed human platelets with various Ctkf6f2 concentration used in the following experiments was performed.

SMILES | protein tyrosine phosphorylation of signaling molecules (PLCβ2, FAK, PKCα, PI3-kinase, Syk, ERK) (platelet suspension) | cytotoxicity to platelets (LDH assay) (washed human platelets)
Cc1ccc(-c2nc3ccccc3n2Cc2ccccc2)o1 [Example 6, 1-Benzyl-2-(5-methyl-2-furyl)benzimidazole] | suppressed | –
Cc1ccc(-c2nc3ccc(F)cc3n2Cc2cccc(F)c2)o1 [Ctkf6f2, 6-fluoro-1-(3-fluorobenzyl)-2-(5-methyl-2-furyl)benzimidazole] | – | little cytotoxicity
